Measured values as given in PubChem BioAssay AID334 (DTP/NCI, 2004).
Several values for one entry are separate records, joined by “and”; a condition that tells them apart may be missing. Equal values may be shown once. Inconclusive results and toxic doses are left out. Rule for the calls: active = survival T/C of 150% or more; inactive = T/C below 125% in these data.

Test system: CD2F1 mice, intracerebral P388 leukemia, median survival T/C%
Assay: NCI In Vivo Anticancer Drug Screen. Data for tumor model P388 Leukemia (intracerebral) in CD2F1 (CDF1) mice
Conditions: endpoint: median survival time, higher = longer survival
Method: The antitumor activity of compounds was measured in mice bearing transplantable tumors. Survival or tumor size were measured and the results are expressed as the measurement made in the treated group (T) divided by the measurement made in the vehicle treated control group (C). The tumor model used in this assay is P388 Leukemia (intracerebral) in CD2F1 (CDF1) mice

[1] = dose: 50.0 mg/kg/injection, schedule: Q01DX009 (ip), vehicle: saline
[2] = dose: 100.0 mg/kg/injection, schedule: Q01DX009 (ip), vehicle: saline
[3] = dose: 8.0 mg/kg/injection, schedule: Q01DX009 (ip), vehicle: saline

Measured: T/C

F
inactive: dose: 16.0 mg/kg/injection, schedule: Q01DX005 (ip), vehicle: saline 97 % of control and 101 % of control | dose: 32.0 mg/kg/injection, schedule: Q01DX005 (ip), vehicle: saline 98 % of control and 99 % of control

CC1(C)N=C(N)N=C(N)N1c1ccc(OCCCNC(=O)Nc2cccc(S(=O)(=O)F)c2)c(Cl)c1
inactive: dose: 25.0 mg/kg/injection, schedule: Q01DX009 (ip), vehicle: saline 105 % of control | [1] 111 % of control | [2] 100 % of control

Cc1cn(C2CC(O)C(CO)O2)c(=O)[nH]c1=O (stereo unspecified)
inactive: dose: 100.0 mg/kg/injection, schedule: Q01DX009 (ip), vehicle: saline with Tween-80 98 % of control and 104 % of control | [2] 93 % of control and 102 % of control | dose: 200.0 mg/kg/injection, schedule: Q01DX009 (ip), vehicle: saline with Tween-80 108 % of control and 109 % of control | dose: 200.0 mg/kg/injection, schedule: Q01DX009 (ip), vehicle: saline 97 % of control and 109 % of control | dose: 400.0 mg/kg/injection, schedule: Q01DX009 (ip), vehicle: saline with Tween-80 101 % of control and 109 % of control | dose: 400.0 mg/kg/injection, schedule: Q01DX009 (ip), vehicle: saline 94 % of control and 111 % of control | dose: 800.0 mg/kg/injection, schedule: Q01DX009 (ip), vehicle: saline with Tween-80 114 % of control and 111 % of control | dose: 800.0 mg/kg/injection, schedule: Q01DX009 (ip), vehicle: saline 104 % of control and 105 % of control | dose: 1600.0 mg/kg/injection, schedule: Q01DX009 (ip), vehicle: saline with Tween-80 93 % of control and 101 % of control

CC1(C)N=C(N)N=C(N)N1c1ccc(CCCCc2ccc(Cl)c(S(=O)(=O)F)c2)c(Cl)c1
inactive: [3] 105 % of control | dose: 12.0 mg/kg/injection, schedule: Q01DX009 (ip), vehicle: saline 122 % of control | dose: 18.0 mg/kg/injection, schedule: Q01DX009 (ip), vehicle: saline 116 % of control | dose: 27.0 mg/kg/injection, schedule: Q01DX009 (ip), vehicle: saline 88 % of control

O=C1NC2(CCCCC2)C(=O)N1CCN(CCCl)CCCl
inactive: dose: 1.25 mg/kg/injection, schedule: Q01DX005 (iv), vehicle: clinical formulation 112 % of control | dose: 1.25 mg/kg/injection, schedule: Q01DX009 (ip), vehicle: clinical formulation 103 % of control | dose: 1.25 mg/kg/injection, schedule: Q01DX009 (ip), vehicle: saline with Tween-80 98 % of control | dose: 1.5 mg/kg/injection, schedule: Q01DX009 (ip), vehicle: saline 107 % of control | dose: 2.5 mg/kg/injection, schedule: Q01DX005 (iv), vehicle: clinical formulation 106 % of control | dose: 2.5 mg/kg/injection, schedule: Q01DX009 (ip), vehicle: clinical formulation 101 % of control | dose: 2.5 mg/kg/injection, schedule: Q01DX009 (ip), vehicle: saline with Tween-80 110 % of control | dose: 5.0 mg/kg/injection, schedule: Q01DX009 (ip), vehicle: clinical formulation 103 % of control | dose: 5.0 mg/kg/injection, schedule: Q01DX009 (ip), vehicle: saline with Tween-80 112 % of control | dose: 6.0 mg/kg/injection, schedule: Q01DX009 (ip), vehicle: saline 117 % of control | dose: 10.0 mg/kg/injection, schedule: Q01DX009 (ip), vehicle: saline with Tween-80 124 % of control | dose: 20.0 mg/kg/injection, schedule: Q01DX009 (ip), vehicle: saline with Tween-80 103 % of control
active: dose: 5.0 mg/kg/injection, schedule: Q01DX005 (iv), vehicle: clinical formulation 160 % of control

CCCCCCOC(=O)C(N)Cc1ccc(N(CCCl)CCCl)cc1 (stereo unspecified)
inactive: dose: 1.6 mg/kg/injection, schedule: Q03HX008 (ip), vehicle: saline 105 % of control | dose: 3.2 mg/kg/injection, schedule: Q03HX008 (ip), vehicle: saline 115 % of control | dose: 6.4 mg/kg/injection, schedule: Q03HX008 (ip), vehicle: saline 110 % of control

C[C@]1(O)CC[C@H]2[C@@H]3CCC4=CC(=O)CC[C@]4(C)[C@@]3(F)[C@@H](O)C[C@@]21C
inactive: dose: 8.0 mg/kg/injection, schedule: Q01DX009 (ip), vehicle: saline with Tween-80 100 % of control and 105 % of control | dose: 16.0 mg/kg/injection, schedule: Q01DX009 (ip), vehicle: saline with Tween-80 91 % of control and 109 % of control | dose: 32.0 mg/kg/injection, schedule: Q01DX009 (ip), vehicle: saline with Tween-80 96 % of control and 106 % of control | dose: 64.0 mg/kg/injection, schedule: Q01DX009 (ip), vehicle: saline with Tween-80 95 % of control and 104 % of control | dose: 128.0 mg/kg/injection, schedule: Q01DX009 (ip), vehicle: saline with Tween-80 91 % of control and 104 % of control | dose: 256.0 mg/kg/injection, schedule: Q01DX009 (ip), vehicle: saline with Tween-80 96 % of control and 106 % of control | dose: 512.0 mg/kg/injection, schedule: Q01DX009 (ip), vehicle: saline with Tween-80 89 % of control and 104 % of control

COc1cccc2c1C(=O)c1c(O)c3c(c(O)c1C2=O)C[C@@](O)(C(=O)CO)C[C@@H]3OC1CC(N)C(O)C(C)O1 (stereo partly specified)
inactive: dose: 0.5 mg/kg/injection, schedule: Q01DX001 (ip), vehicle: saline 89 % of control | dose: 1.0 mg/kg/injection, schedule: Q01DX001 (ip), vehicle: saline 98 % of control | dose: 2.0 mg/kg/injection, schedule: Q01DX001 (ip), vehicle: saline 94 % of control | dose: 4.0 mg/kg/injection, schedule: Q01DX001 (ip), vehicle: saline 90 % of control | dose: 8.0 mg/kg/injection, schedule: Q01DX001 (ip), vehicle: saline 80 % of control | dose: 16.0 mg/kg/injection, schedule: Q01DX001 (ip), vehicle: saline 91 % of control

COc1cc(C[C@H]2c3cc(OC)c(OC)cc3CCN2C)c(Oc2cc3c(cc2OC)-c2c(OC)c(OC)cc4c2[C@H](C3)N(C)CC4)cc1OC
inactive: dose: 50.0 mg/kg/injection, schedule: Q01DX005 (ip), vehicle: Klucel (hydroxypropylcellulose) (HPC) 102 % of control and 106 % of control and 107 % of control | dose: 200.0 mg/kg/injection, schedule: Q01DX005 (ip), vehicle: Klucel (hydroxypropylcellulose) (HPC) 96 % of control and 101 % of control and 104 % of control

CC[C@]1(O)C[C@H]2CN(CCc3c([nH]c4ccccc34)[C@@](C(=O)OC)(c3cc4c(cc3OC)N(C=O)[C@H]3[C@@](O)(C(=O)OC)[C@H](OC(C)=O)[C@]5(CC)C=CCN6CC[C@]43[C@@H]65)C2)C1
inactive: dose: 0.2 mg/kg/injection, schedule: Q04DX003 (ip), vehicle: water 111 % of control | dose: 0.4 mg/kg/injection, schedule: Q04DX003 (ip), vehicle: water 106 % of control | dose: 0.8 mg/kg/injection, schedule: Q04DX003 (ip), vehicle: water 116 % of control | dose: 1.6 mg/kg/injection, schedule: Q04DX003 (ip), vehicle: water 109 % of control | dose: 3.2 mg/kg/injection, schedule: Q04DX003 (ip), vehicle: water 106 % of control

Nc1ncnc2c1ncn2C1OC(COP(=O)(O)O)C(O)C1O (stereo unspecified)
inactive: [1] 97 % of control | dose: 1600.0 mg/kg/injection, schedule: Q01DX009 (ip), vehicle: saline 100 % of control and 104 % of control

CCCCCCCCCCCCCCCCCC(=O)NC(CC(=O)OCCCCCC)c1ccc(N(CCCl)CCCl)cc1 (stereo unspecified)
active: dose: 69.0 mg/kg/injection, schedule: Q03HX008 (ip), vehicle: saline 152 % of control
inactive: dose: 2.15 mg/kg/injection, schedule: Q03HX008 (ip), vehicle: saline 105 % of control | dose: 4.3 mg/kg/injection, schedule: Q03HX008 (ip), vehicle: saline 105 % of control | dose: 8.6 mg/kg/injection, schedule: Q03HX008 (ip), vehicle: saline 105 % of control | dose: 275.0 mg/kg/injection, schedule: Q03HX008 (ip), vehicle: saline 121 % of control

CNc1nc(N(C)C)nc(N(C)C)n1
inactive: [3] 99 % of control | dose: 12.5 mg/kg/injection, schedule: Q01DX009 (ip), vehicle: saline 101 % of control and 111 % of control | dose: 16.0 mg/kg/injection, schedule: Q01DX009 (ip), vehicle: saline 103 % of control | dose: 32.0 mg/kg/injection, schedule: Q01DX009 (ip), vehicle: saline 106 % of control | dose: 64.0 mg/kg/injection, schedule: Q01DX009 (ip), vehicle: saline 118 % of control
